This note sets out measurements from patent US20260217697A1, “COMPOUNDS COMPRISING HETEROARYL RINGS AND COMPOSITIONS AND METHODS THEREOF” (lonGen Therapeutics Co., Ltd., priority 2022, published 2026).

The test concerns the target T1, hTRPV3 (Homo sapiens, UniProt Q8NET8).
T1 construct: The commercially available plasmid with the full-length cDNA of hTRPV3 (791 aa) (NM_001258205.2); host or cells: HEK293T
T1 sequence (Q8NET8 1-791 isoform Q8NET8-2): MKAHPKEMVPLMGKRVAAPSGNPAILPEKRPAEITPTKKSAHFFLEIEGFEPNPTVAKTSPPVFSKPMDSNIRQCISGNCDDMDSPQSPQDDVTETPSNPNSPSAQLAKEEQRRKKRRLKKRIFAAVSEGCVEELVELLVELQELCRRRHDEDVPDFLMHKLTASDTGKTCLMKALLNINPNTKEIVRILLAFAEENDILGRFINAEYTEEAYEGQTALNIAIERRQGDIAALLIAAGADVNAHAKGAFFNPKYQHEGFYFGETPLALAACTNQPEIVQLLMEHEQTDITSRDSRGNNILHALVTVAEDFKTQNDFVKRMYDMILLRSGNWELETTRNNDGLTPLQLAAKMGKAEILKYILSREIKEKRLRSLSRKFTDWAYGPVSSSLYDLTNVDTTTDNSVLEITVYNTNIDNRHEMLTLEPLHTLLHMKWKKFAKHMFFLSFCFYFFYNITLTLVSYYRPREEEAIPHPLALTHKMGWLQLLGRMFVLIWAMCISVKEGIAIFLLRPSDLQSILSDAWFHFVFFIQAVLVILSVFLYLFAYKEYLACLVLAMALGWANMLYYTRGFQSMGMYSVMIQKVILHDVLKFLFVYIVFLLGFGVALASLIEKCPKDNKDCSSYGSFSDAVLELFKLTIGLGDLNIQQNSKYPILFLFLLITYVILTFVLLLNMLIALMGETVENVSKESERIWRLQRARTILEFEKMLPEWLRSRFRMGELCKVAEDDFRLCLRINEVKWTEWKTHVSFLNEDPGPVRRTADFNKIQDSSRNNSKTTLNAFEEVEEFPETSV
The test can be described thus: Whole-cell patch-clamp recording of hTRPV3 current in transfected HEK293T cells (2-APB induced). It counts as cell-based. As to conditions: current induced by 300 μM 2-APB, compounds tested up to 10 μM, room temperature. As for the experimental part:
Various technologies can be utilized to assess TRPV3 activation in accordance with the present disclosure. For example, in some embodiments, compounds are assessed in in vitro patch clamp experiments. Certain useful procedures are described herein as examples.
In some embodiments, whole-cell patch-clamp recordings were used to detect the current through hTRPV3 channels in the HEK293T cell line transfected with hTRPV3 cDNA and evaluate the exact blocking effect of compounds on hTRPV3. In some embodiments, a perfusion system was adopted to control the extracellular solution, including the addition of the agonist and different antagonists.
HEK293T cells were cultured in a Dulbecco's modified Eagle's medium containing 10% fetal bovine serum (Thermo Scientific) and 1% penicillin/streptomycin (Thermo Scientific) at 37° C. with 5% CO2. The commercially available plasmid with the full-length cDNA of hTRPV3 (791 aa) (NM_001258205.2) was purchased from OriGene Technologies. The transfection of hTRPV3 plasmids was conducted using Lipofectamine™ 3000 following the manufacturer's instructions (Invitrogen).
Whole-cell patch-clamp experiments were performed 18 h post-transfection, using a MultiClamp 700B amplifier driven by pClamp 11 software (Molecular Devices). In order to achieve good single-cell physical separation, HEK293T cells with hTRPV3 expression were digested and then re-plated at low density on glass coverslips. Electrodes were pulled from borosilicate glass with a P-97 micropipette puller (Sutter Instruments) and those with resistances of 3-5 MΩ are used for experiments. In some embodiments, an Ag—AgCl wire was used as a reference electrode and signals are filtered using a 2.9 kHz low-pass Bessel filter. Membrane potential was held at 0 mV. For recording of agonist-induced activation and inhibition by different test compounds, currents were elicited by a protocol consisting of a 400-ms step to +80 mV, followed by a 400-ms step to −80 mV at 2-s intervals. both pipette and bath solutions contained 130 mM NaCl, 0.3 mM EDTA, and 3 mM HEPES (buffered to pH 7.4 with NaOH). All recordings were made at room temperature.
All patch-clamp recordings were analyzed using the Clampfit software and GraphPad Prism 6.0 software. Specifically, data are analyzed by calculating the degree of current amplitude after the test compound addition compared with the unblocked agonist-induced current amplitude. The resulting blocking percentage at each concentration was used to make a concentration-response analysis and fitted to the Hill equation: blocking percentage=minimum blocking percentage+ (maximum blocking percentage-minimum blocking percentage)/(1+10^(Hill slope* […])). The minimum blocking percentage is 0% and maximum blocking percentage is 100%, while the Hill slope and the IC50 were determined as the curve fitting routine. Compounds of interest were tested against hTRPV3 at concentrations up to 10 μM, and certain data was used to estimate IC50 as described herein.

Consider `COc1ncnc(OC)c1C(=O)Nc1nc2c(s1)C(C)(c1ccccc1)Oc1cc(C(F)(F)F)ccc1-2` (centres unmarked) [compound 25, 4,6-dimethoxy-N-(4-methyl-4-phenyl-7-(trifluoromethyl)-4H-chromeno[4,3-d]thiazol-2-yl)pyrimidine-5-carboxamide], for which the IC50 (usually the midpoint of a concentration-inhibition curve) was below 100 nM.
Then `COc1ncnc(OC)c1C(=O)Nc1nc2c(s1)C1(CCCCCC1)Oc1cc(C(F)(F)F)ccc1-2` [compound 26, 4,6-dimethoxy-N-(7-(trifluoromethyl)spiro[chromeno[4,3-d]thiazole-4,1′-cycloheptan]-2-yl)pyrimidine-5-carboxamide], with 100 to 1000 nM; and `COc1ncnc(OC)c1C(=O)Nc1nc2c(s1)C1(CCN(C(=O)OC(C)(C)C)CC1)Oc1cc(C(F)(F)F)ccc1-2` [compound 27, tert-butyl 2-(4,6-dimethoxypyrimidine-5-carboxamido)-7-(trifluoromethyl)spiro[chromeno[4,3-d]thiazole-4,4′-piperidine]-1′-carboxylate], with below 100 nM.
Next, `C=CCCC1Oc2cc(C(F)(F)F)ccc2-c2nc(NC(=O)c3c(OC)ncnc3OC)sc21` (centres unmarked) [compound 28, N-(4-(but-3-en-1-yl)-7-(trifluoromethyl)-4H-chromeno[4,3-d]thiazol-2-yl)-4,6-dimethoxypyrimidine-5-carboxamide]: 100 to 1000 nM.
Next, `COc1ncnc(OC)c1C(=O)Nc1nc2c(s1)C(CCc1ccccc1)Oc1cc(C(F)(F)F)ccc1-2` (centres unmarked) [compound 29, 4,6-dimethoxy-N-(4-phenethyl-7-(trifluoromethyl)-4H-chromeno[4,3-d]thiazol-2-yl)pyrimidine-5-carboxamide]: 100 to 1000 nM; `COc1ncnc(OC)c1C(=O)Nc1nc2c(s1)C1(CCC(OCc3ccccc3)CC1)Oc1cc(C(F)(F)F)ccc1-2` (centres unmarked) [compound 30, N-(4′-(benzyloxy)-7-(trifluoromethyl)spiro[chromeno[4,3-d]thiazole-4,1′-cyclohexan]-2-yl)-4,6-dimethoxypyrimidine-5-carboxamide]: 100 to 1000 nM; `CCC1CCC2(CC1)Oc1cc(C(F)(F)F)ccc1-c1nc(NC(=O)c3c(OC)ncnc3OC)sc12` (centres unmarked) [compound 31, N-(4′-ethyl-7-(trifluoromethyl)spiro[chromeno[4,3-d]thiazole-4,1′-cyclohexan]-2-yl)-4,6-dimethoxypyrimidine-5-carboxamide]: 100 to 1000 nM.
`CCOC(=O)C1CCC2(CC1)Oc1cc(C(F)(F)F)ccc1-c1nc(NC(=O)c3c(OC)ncnc3OC)sc12` (centres unmarked) [compound 32, ethyl 2-(4,6-dimethoxypyrimidine-5-carboxamido)-7-(trifluoromethyl)spiro[chromeno[4,3-d]thiazole-4,1′-cyclohexane]-4′-carboxylate] displayed an IC50 below 100 nM.
Then `COc1ncnc(OC)c1C(=O)Nc1nc2c(s1)C1(CCC(C)CC1)Oc1cc(C(F)(F)F)ccc1-2` (centres unmarked) [compound 33, 4,6-dimethoxy-N-(4′-methyl-7-(trifluoromethyl)spiro[chromeno[4,3-d]thiazole-4,1′-cyclohexan]-2-yl)pyrimidine-5-carboxamide], with 100 to 1000 nM; and `COc1ncnc(OC)c1C(=O)Nc1nc2c(s1)C1(CCC(C)(C)CC1)Oc1cc(C(F)(F)F)ccc1-2` [compound 34, N-(4′,4′-dimethyl-7-(trifluoromethyl)spiro[chromeno[4,3-d]thiazole-4,1′-cyclohexan]-2-yl)-4,6-dimethoxypyrimidine-5-carboxamide], with 100 to 1000 nM.
Molecule `COc1ncnc(OC)c1C(=O)Nc1nc2c(s1)C1(CCCC(C)(C)C1)Oc1cc(C(F)(F)F)ccc1-2` (centres unmarked) [compound 35, N-(3′,3′-dimethyl-7-(trifluoromethyl)spiro[chromeno[4,3-d]thiazole-4,1′-cyclohexan]-2-yl)-4,6-dimethoxypyrimidine-5-carboxamide] gave an IC50 of 100 to 1000 nM.
Then `COc1ncnc(OC)c1C(=O)Nc1nc2c(s1)C1(CCC(c3ccc(C)cc3)CC1)Oc1cc(C(F)(F)F)ccc1-2` (centres unmarked) [compound 36, 4,6-dimethoxy-N-(4′-(p-tolyl)-7-(trifluoromethyl)spiro[chromeno[4,3-d]thiazole-4,1′-cyclohexan]-2-yl)pyrimidine-5-carboxamide], with 100 to 1000 nM.
As to `COc1ncnc(OC)c1C(=O)Nc1nc2c(s1)C1(CC(C)CC(C)C1)Oc1cc(C(F)(F)F)ccc1-2` (centres unmarked) [compound 37, N-(3′,5′-dimethyl-7-(trifluoromethyl)spiro[chromeno[4,3-d]thiazole-4,1′-cyclohexan]-2-yl)-4,6-dimethoxypyrimidine-5-carboxamide], the IC50 was in the range of 100 to 1000 nM.
In turn, `CCC1CCCC2(C1)Oc1cc(C(F)(F)F)ccc1-c1nc(NC(=O)c3c(OC)ncnc3OC)sc12` (centres unmarked) [compound 38, N-(3′-ethyl-7-(trifluoromethyl)spiro[chromeno[4,3-d]thiazole-4,1′-cyclohexan]-2-yl)-4,6-dimethoxypyrimidine-5-carboxamide] returned an IC50 of 100 to 1000 nM.
`COc1ncnc(OC)c1C(=O)Nc1nc2c(s1)C1(CCCC(NC(=O)OCc3ccccc3)C1)Oc1cc(C(F)(F)F)ccc1-2` (centres unmarked) [compound 39, benzyl(2-(4,6-dimethoxypyrimidine-5-carboxamido)-7-(trifluoromethyl)spiro[chromeno[4,3-d]thiazole-4,1′-cyclohexan]-3′-yl)carbamate] came in with an IC50 of 100 to 1000 nM.
Molecule `COc1ncnc(OC)c1C(=O)Nc1nc2c(s1)C1(CCC(F)(F)CC1)Oc1cc(C(F)(F)F)ccc1-2` [compound 40, N-(4′,4′-difluoro-7-(trifluoromethyl)spiro[chromeno[4,3-d]thiazole-4,1′-cyclohexan]-2-yl)-4,6-dimethoxypyrimidine-5-carboxamide] showed an IC50 of 100 to 1000 nM.
Then `CCCCCCC1(C)Oc2cc(C(F)(F)F)ccc2-c2nc(NC(=O)c3c(OC)ncnc3OC)sc21` (centres unmarked) [compound 41, N-(4-hexyl-4-methyl-7-(trifluoromethyl)-4H-chromeno[4,3-d]thiazol-2-yl)-4,6-dimethoxypyrimidine-5-carboxamide], with 100 to 1000 nM; and `COc1ncnc(OC)c1C(=O)Nc1nc2c(s1)C(C)(CCc1ccccc1)Oc1cc(C(F)(F)F)ccc1-2` (centres unmarked) [compound 42, 4,6-dimethoxy-N-(4-methyl-4-phenethyl-7-(trifluoromethyl)-4H-chromeno[4,3-d]thiazol-2-yl)pyrimidine-5-carboxamide], with 100 to 1000 nM; and `C=CCCOc1ncnc(OC)c1C(=O)Nc1nc2c(s1)C1(CCCCC1)Oc1cc(C(F)(F)F)ccc1-2` [compound 43, 4-(but-3-en-1-yloxy)-6-methoxy-N-(7-(trifluoromethyl)spiro[chromeno[4,3-d]thiazole-4,1′-cyclohexan]-2-yl)pyrimidine-5-carboxamide], with 100 to 1000 nM.
Next, `C=CCCC1(C)Oc2cc(C(F)(F)F)ccc2-c2nc(NC(=O)c3c(OC)ncnc3OC)sc21` (centres unmarked) [compound 44, N-(4-(but-3-en-1-yl)-4-methyl-7-(trifluoromethyl)-4H-chromeno[4,3-d]thiazol-2-yl)-4,6-dimethoxypyrimidine-5-carboxamide]: below 100 nM.
